Results from patent US20230399360A1, “TERLIPRESSIN-OCTADECANEDIOIC ACID CONJUGATE FOR VASOCONSTRICTIVE THERAPY” (Northwestern University, priority 2019, published 2023).
Bridge positions count the residues as written; N and C are the ends. Peptide text beside a SMILES is read from it. * marks the point of attachment. C18 diacid = O=C(O)CCCCCCCCCCCCCCCCC(=O)*

Columns and labels:
V1 receptor = target: T1, V1 receptor (Homo sapiens, UniProt P37288); assay: Calcium influx assay (Fluo-4) in primary human aortic smooth muscle cells; format: cell-based; conditions: 10^-8 to 10^-4 M, fluorescence over 5 min
T1 construct: Primary human aortic smooth muscle cells (ATCC, PCS-100-012 cell line) were cultured in vascular cell basal medium; host or cells: primary human aortic smooth muscle cells
Experimental: Primary human aortic smooth muscle cells (ATCC, PCS-100-012 cell line) were cultured in vascular cell basal medium supplemented with rhFGF-basic 5 ng/mL, rh insulin 5 μg/mL, ascorbic acid 50 μg/mL, L-glutamine 10 mM, rh EGF 5 ng/mL, fetal bovine serum 5%.
Calcium influx assays were performed using Fluo-4 direct calcium assay kit (ThermoFisher) on cells between passage numbers 3 to 6. To this end, cells were passaged and plated in a 96-well black tissue culture plate in a concentration of 10,000 cells per well followed by incubation in 37° C. and 5% CO2 for 48 hours. Cells were loaded with the dye and incubated for 1 hr at 37° C. and 5% CO2. Then, terlipressin peptide or terlipressin-ODDA was added to the wells in concentrations ranging from 10^−8 to 10^−4 M, and fluorescence was measured immediately on a Perkin Elmer EnSpire 2300 plate reader. Signal was measured at 530 nm following excitation at 488 nm at 999 time points over a 5 min period.

[1] = Non-invasive tail-cuff systolic blood pressure measurement in mice; format: in vivo, C57BL/6 mice; conditions: for increase in systolic blood pressure: C57BL mice, intraperitoneal injection, 0.1 to 10 μg/gr body weight, 20 minutes of measurement, compared with PBS vehicle
[2] = mouse, in vivo
Experimental: (§1) Blood samples were drawn from the animals (approximately 100 μl) at different time points (1 hr, 3 hr, 6 hr, 24 hr) following the injection. The plasma was separated from the whole blood by centrifugation at 7,000 RPM for 10 minutes and the supernatant was transferred to a new tube. To separate the peptides or peptide conjugates from the plasma proteins, the proteins were denatured using a 7M guanidinium hydrochloride solution mixed 1:1 with the plasma and incubated at room temperature for 15 minutes. Subsequently, to the solution was diluted 10-fold with cold ethanol and the samples were incubated at −20° C. After 1 hour incubation the samples were centrifuged at 10,000 RPM for 10 minutes to precipitate the proteins, and the supernatant was transferred to a new tube. Samples were kept at −80° C. until analyzed.
(§2) 5-20 μl of the ethanol solution were injected to a QTRAP 6500+LC-MS/MS system (SCIEX) for detecting the drug concentration. Mass spectra were obtained and the areas under the curves were evaluated against a calibration curve made formerly.
(§3) Blood pressure measurements were taken for the first 20 minutes following drug injection, and subsequently blood samples were drawn at 1, 3, 6 and 24 hours.

in vivo = conditions: mouse
Experimental: as §1, §2, §3

[3] = human, in vivo; cited from earlier work
[4] = listed as terlipressin conjugate
[5] = mice, systolic blood pressure vs baseline (FIG. 8)

T1 sequence (P37288 whole entry): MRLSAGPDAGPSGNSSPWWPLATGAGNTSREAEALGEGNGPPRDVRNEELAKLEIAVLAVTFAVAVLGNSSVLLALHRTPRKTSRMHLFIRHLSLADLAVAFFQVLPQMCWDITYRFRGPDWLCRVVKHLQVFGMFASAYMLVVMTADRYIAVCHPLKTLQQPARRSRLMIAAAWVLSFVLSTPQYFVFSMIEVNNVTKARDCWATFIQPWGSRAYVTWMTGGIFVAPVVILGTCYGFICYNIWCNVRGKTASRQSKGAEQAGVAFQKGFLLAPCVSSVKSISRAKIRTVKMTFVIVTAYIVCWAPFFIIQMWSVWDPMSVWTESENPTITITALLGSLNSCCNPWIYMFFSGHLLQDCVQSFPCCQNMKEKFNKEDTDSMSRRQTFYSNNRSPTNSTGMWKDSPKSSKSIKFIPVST

| Compound | activation of smooth muscle cells indicated by influx of intracellular calcium (V1 receptor; listed as conjugate) | activation of smooth muscle cells indicated by influx of intracellular calcium (V1 receptor; [4]) | activation of smooth muscle cells indicated by influx of intracellular calcium (V1 receptor; listed as terlipressin conjugates) | increase in systolic blood pressure [1] | increase in systolic blood pressure ([1]; listed as C18 ODDA-terlipressin conjugates) | increase in systolic blood pressure ([1]; listed as ODDA-terlipressin conjugates) | increase in systolic blood pressure [1, 4] | course of systolic blood pressure over time after injection [1, 5] | detection in plasma by LC-MS-MS [2] | half-lifetime in plasma [2] | half-life (in vivo) | time of peak in measured blood pressure following the injection [1, 5] | half life following IV administration [3] |
| --- | --- | --- | --- | --- | --- | --- | --- | --- | --- | --- | --- | --- | --- |
| NCCCCC(NC(=O)C1CCCN1C(=O)C1CSSCC(NC(=O)CNC(=O)CNC(=O)CNC(=O)CCCCCCCCCCCCCCCCC(=O)O)C(=O)NC(Cc2ccc(O)cc2)C(=O)NC(Cc2ccccc2)C(=O)NC(CCC(N)=O)C(=O)NC(CC(N)=O)C(=O)N1)C(=O)NCC(N)=O (stereo not shown) [C18-terlipressin, octadecanedioic acid-terlipressin] ({C18 diacid}-GGGCYFQNCPKG-NH2; disulfide 4-9; configuration not given here) | can stimulate vasocontraction in cultured smooth muscle cells | can stimulate response in cultured smooth muscle cells | can bind to and activate smooth muscle cells | clear increase in pressure | increase the systolic blood pressure | increase the systolic blood pressure | Rise in blood pressure was observed | more stable pressure over time | very sharp and clear peaks | about 1 hour | ~1 h | – | – |
| NCCCC[C@H](NC(=O)[C@@H]1CCCN1C(=O)[C@@H]1CSSC[C@H](NC(=O)CNC(=O)CNC(=O)CN)C(=O)N[C@@H](Cc2ccc(O)cc2)C(=O)N[C@@H](Cc2ccccc2)C(=O)N[C@@H](CCC(N)=O)C(=O)N[C@@H](CC(N)=O)C(=O)N1)C(=O)NCC(N)=O [terlipressin, Terlipressin] (H-GGGCYFQNCPKG-NH2; disulfide 4-9) | – | – | – | clear increase in pressure | – | – | – | continuous drop in pressure | no terlipressin was detected at all | – | – | 5 min | less than 6 minutes |
